What is called Cmax is the highest concentration seen after dosing. One may read the half-life as the time in which the quantity being followed falls by half. As a reminder, the bioavailability is the share of a dose that reaches the circulation, judged against a reference dose that is usually intravenous. The low end stands for little systemic uptake, the high end for much systemic uptake. As a reminder, the AUC(0-t) is exposure summed from dosing to a finite time, without extrapolation to infinity. High values mean more exposure, low ones less exposure. By AUC is commonly meant the area under the concentration-time curve, a measure of exposure. As usually defined, the MRT is the average time that molecules of a dose stay in the body. The Tmax is the time at which the peak concentration occurs.

One compound from ChEMBL document CHEMBL5143560, “Rational drug design to explore the structure-activity relationship (SAR) of TRK inhibitors with 2,4-diaminopyrimidine scaffold” (Eur J Med Chem, 2022) can be followed below.

Data set [1] is described as follows: Volume of distribution at steady state in Sprague-Dawley rat at 1 mg/kg, iv by LC-MS/MS analysis. The format is ADME, organism-based. The settings on record: in vivo, read-out: Vdss.
The nature of data set [2]: Stability of the compound in human plasma assessed as remaining compound measure after 60 mins by LC-MS/MS analysis. The format is ADME, cell-free. The settings on record: read-out: Stability.
A short description of data set [3]: Metabolic stability in human liver microsomes assessed as parent compound remaining measured at 60 min in absence of NADPH by LC-MS/MS analysis. Type of data set: ADME, Microsome. Conditions: read-out: Stability.
Data set [4] is described as follows: Stability of the compound in human plasma assessed as remaining compound measure after 10 mins by LC-MS/MS analysis. Type of data set: ADME, cell-free.
Data set [5] can be described thus: Metabolic stability in human liver microsomes assessed as parent compound remaining measured at 60 min in presence of NADPH by LC-MS/MS analysis. The format is ADME, Microsome. Conditions: read-out: Stability.
A short description of data set [6]: Metabolic stability in human liver assessed as intrinsic clearance in presence of NADPH by LC-MS/MS analysis. Type of data set: ADME, tissue-based. The settings on record: read-out: CLH.
Data set [7] is described as follows: Metabolic stability in human microsomes assessed as intrinsic clearance in presence of NADPH by LC-MS/MS analysis. Type of data set: ADME, Microsome.
A short description of data set [8]: Cmax in Sprague-Dawley rat at 3 mg/kg, po by LC-MS/MS analysis. The format is ADME, organism-based. More on the design: dose 3 mg/kg, route po. The settings on record: in vivo.
Data set [9] in a line: Half life in Sprague-Dawley rat at 1 mg/kg, iv by LC-MS/MS analysis. The format is ADME, organism-based. The settings on record: in vivo.
Data set [10] can be described thus: Oral bioavailability in Sprague-Dawley rat at 3 mg/kg by LC-MS/MS analysis. The format is ADME, organism-based. The settings on record: in vivo.
Data set [11] can be described thus: AUClast in Sprague-Dawley rat at 1 mg/kg, iv by LC-MS/MS analysis. Type of data set: ADME, organism-based. More on the design: time 0 - last, dose 1 mg/kg, route iv. The settings on record: in vivo.
Data set [12] in a line: AUCinfinity in Sprague-Dawley rat at 1 mg/kg, iv by LC-MS/MS analysis. The format is ADME, organism-based. More on the design: time infinity, dose 1 mg/kg, route iv. Conditions: in vivo.
A short description of data set [13]: Stability of the compound in human plasma assessed as remaining compound measure after 120 mins by LC-MS/MS analysis. Type of data set: ADME, cell-free. The settings on record: read-out: Stability.
Data set [14] in a line: AUClast in Sprague-Dawley rat at 3 mg/kg, po by LC-MS/MS analysis. The format is ADME, organism-based. More on the design: time 0 - last, dose 3 mg/kg, route po. The settings on record: in vivo.
The nature of data set [15]: Stability of the compound in human plasma assessed as half life by LC-MS/MS analysis. The format is ADME, cell-free.
The nature of data set [16]: MRT in Sprague-Dawley rat at 1 mg/kg, iv by LC-MS/MS analysis. Type of data set: ADME, organism-based. The settings on record: in vivo.
The nature of data set [17]: MRT in Sprague-Dawley rat at 3 mg/kg, po by LC-MS/MS analysis. Type of data set: ADME, organism-based. Conditions: in vivo.
A short description of data set [18]: Metabolic stability in human liver microsomes assessed as half life in presence of NADPH by LC-MS/MS analysis. The format is ADME, Microsome. (In general: Microsomes from liver hold many membrane-bound enzymes, among them those of drug oxidation.)
Data set [19] in a line: Tmax in Sprague-Dawley rat at 3 mg/kg, po by LC-MS/MS analysis. The format is ADME, organism-based. Conditions: in vivo.
A short description of data set [20]: Stability of the compound in human plasma assessed as remaining compound measure after 30 mins by LC-MS/MS analysis. The format is ADME, cell-free. Conditions: read-out: Stability.

On to `O=C(N[C@@H]1CCCNC1)c1cccc(Nc2ncc(Cl)c(NCc3cccc(F)c3)n2)c1`, for which, in data set [1], the Vd turned out to be 31 L/kg. Moreover, the results for the remaining at 1 h in [2], in data set [3] and in [5] were 90.5%, 96% and 90.2%, respectively. Further, in data set [4], the Stability is listed as 84%. The CLint scaled is less than 8.6 mL/min/kg in [6] and less than 9.6 mL/min/kg in data set [7]. The Cmax in [8] is 33.6 ng/mL. The half-life in data set [9] is 3.4 h; in [15], more than 4.82 h; in data set [18] it was more than 2.42 h. This compound yielded a bioavailability in data set [10] of 17.4%. The area under the curve AUC(0-t) in data set [11] worked out at 325 ng·h/mL; in data set [14] it was 188 ng·h/mL. The compound further gave an area under the curve (AUC) in data set [12] of 386 ng·h/mL. Moreover, the remaining at 2 h in data set [13] was found to be 103%. In addition, the MRT in data set [16] came out at 3.96 h; in data set [17] it was 3.49 h. In data set [19], the time of peak concentration (Tmax) stood at 4 h. Besides, the remaining at 0.5 h in data set [20] came to 90.1%.
